In brackets after ≈: the same amount, converted by molar mass. Activity calls are given as the source filed them. No cut-off for these calls is given here.
What was measured:
Trypanosoma brucei = test: Antitrypanosomal activity against Trypanosoma brucei BS427 upto 120 uM after 48 hrs by alamar blue assay; assay type: functional, organism-based
Plasmodium falciparum = test: Antimalarial activity against chloroquine-resistant Plasmodium falciparum Dd2 at 120 uM after 72 hrs by DAPI stain; assay type: functional
Saccharomyces cerevisiae = test: Antibacterial activity against Saccharomyces cerevisiae after 19 to 20 hrs by agar hole punch diffusion assay; assay type: functional
Escherichia coli = test: Antibacterial activity against Escherichia coli K-12 after 19 to 20 hrs by agar hole punch diffusion assay; assay type: functional
HEK293 = test: Cytotoxicity against HEK293 cells upto 120 uM after 72 hrs by alamar blue assay; assay type: cell-based; details: human, hek293, 72 h
HeLa = test: Cytotoxicity against human HeLa cells upto 120 uM after 72 hrs by alamar blue assay; assay type: functional, cell-based
Staphylococcus = test: Antibacterial activity against Staphylococcus albus epidermis strain at 800 ug/mL after 19 to 20 hrs by agar hole punch diffusion assay; assay type: functional, organism-based

CC[C@@H](C)[C@@H](NC(=O)[C@@H](NC(=O)[C@H](NC(=O)CCCCC(N)Cc1ccc(OC)cc1)[C@@H](O[C@@H]1O[C@@H](C(=O)O)[C@@H](O)[C@H](OC(N)=O)[C@H]1O)c1c[nH]c(=O)[nH]1)[C@@H](C)CC)C(=O)O (some centres not stated) [CITRONAMIDE A]
Activity (Trypanosoma brucei): inactive
Activity (Plasmodium falciparum): 24%
MIC (Saccharomyces cerevisiae): 8 µg/mL (≈ 9.24 µM)
MIC (Escherichia coli): 80 µg/mL (≈ 92.4 µM)
Activity (HEK293): Not Active
Activity (HeLa): inactive
Activity (Staphylococcus): inactive
